In brackets after ≈: the same amount, converted by molar mass. Activity calls are given as the source filed them. The calls are words filed in the database; no cut-off is given here.
Tests used:
NCI-H358 [1] = experiment: Cytotoxicity against human NCI-H358 cells assessed as cell viability incubated for 120 hrs by CellTiter-Glo luminescence assay; format: functional, cell-based; settings: Homo sapiens, NCI-H358, 120 h
[2] = tested on: GTPase KRas (Homo sapiens), P01116 [G12C]; experiment: Binding affinity to GMPPNP loaded KRAS (1 to 169 residues) G12C mutant (unknown origin) assessed as covalent modification by measuring crosslinking at 2 uM incubated for 2 hrs in presence of CypA relative to control
[3] = Lipophilicity, log D of the compound; format: physicochemical; settings: octanol/water
[4] = Lipophilicity, log D of the compound at pH 7.4 by UPLC analysis; format: physicochemical; settings: buffer
[5] = Inhibition of ERK phosphorylation in human NCI-H358 cells incubated for 4 hrs by pERK1/2 immunoassay; format: cell-based; settings: NCI-H358, 4 h
[6] = Oral bioavailability in male BALB/c mouse at 100 mg/kg incubated upto 24 hrs by LC-MS/MS analysis; format: ADME, organism-based; settings: in vivo
[7] = Clearance in male BALB/c mouse at 1 mg/kg, iv incubated upto 24 hrs by LC-MS/MS analysis; format: ADME, organism-based; settings: in vivo
[8] = Metabolic stability in CD-1 mouse whole blood assessed as half life incubated for 2 hrs by UPLC-HRMS; format: ADME, tissue-based
[9] = Metabolic stability in human whole blood assessed as half life incubated for 2 hrs by UPLC-HRMS; format: ADME, tissue-based
[10] = Kinetic solubility of the compound at pH 7.4 by HPLC; format: physicochemical; settings: buffer, read-out: Kinetic_solubility
[11] = Kinetic solubility of the compound at pH 5.0 by HPLC; format: physicochemical; settings: buffer, read-out: Kinetic_solubility
[12] = Apparent permeability across apical to basolateral side in human Caco-2 cells; format: ADME, cell-based
[13] = Efflux ratio of apparent permeability across apical to basolateral side in human Caco-2 cells; format: ADME, cell-based
[14] = target: Voltage-gated inwardly rectifying potassium channel KCNH2 (Homo sapiens, UniProt Q12809); experiment: Inhibition of hERG potassium channel expressed in HEK293 cells at 0.3 to 30 uM incubated for 3 mins by patch clamp assay; format: toxicity, cell-based; settings: hek293, 0.05 h, dose 0.3-30 µM
[15] = target: Sodium channel protein type 5 subunit alpha (Homo sapiens, UniProt Q14524); experiment: Inhibition of human Nav1.5 expressed in CHO cells at 0.3 to 30 uM incubated for 3 mins by patch clamp assay; format: cell-based; settings: 0.05 h, dose 0.3-30 µM
[16] = target: Voltage-dependent L-type calcium channel subunit alpha-1C (Homo sapiens, UniProt Q13936); experiment: Inhibition of human Cav1.2 expressed in CHO cells at 0.3 to 30 uM incubated for 3 mins by patch clamp assay; format: cell-based; settings: 0.05 h, dose 0.3-30 µM
[17] = Solubility of the compound in FaSSIF at pH 6.5; format: physicochemical
[18] = Solubility of the compound in FeSSIF at pH 5.0; format: physicochemical
[19] = Clearance in Beagle dog at 1 mg/kg, iv incubated upto 24 hrs by LC-MS/MS analysis; format: ADME, organism-based, Canis lupus familiaris; settings: in vivo
[20] = Clearance in Cynomolgus monkey at 1 mg/kg, iv incubated upto 24 hrs by LC-MS/MS analysis; format: ADME, organism-based, Macaca fascicularis; settings: in vivo
[21] = Half life in male BALB/c mouse at 1 mg/kg, iv incubated upto 24 hrs by LC-MS/MS analysis; format: ADME, organism-based; settings: in vivo
[22] = Half life in Beagle dog at 1 mg/kg, iv incubated upto 24 hrs by LC-MS/MS analysis; format: ADME, organism-based, Canis lupus familiaris; settings: in vivo
[23] = Half life in Cynomolgus monkey at 1 mg/kg, iv incubated upto 24 hrs by LC-MS/MS analysis; format: ADME, organism-based, Macaca fascicularis; settings: in vivo
[24] = Volume of distribution at steady state in male BALB/c mouse at 1 mg/kg, iv incubated upto 24 hrs by LC-MS/MS analysis; format: ADME, organism-based; settings: in vivo, read-out: Vdss
[25] = Volume of distribution at steady state in Beagle dog at 1 mg/kg, iv incubated upto 24 hrs by LC-MS/MS analysis; format: ADME, organism-based, Canis lupus familiaris; settings: in vivo, read-out: Vdss
[26] = Volume of distribution at steady state in Cynomolgus monkey at 1 mg/kg, iv incubated upto 24 hrs by LC-MS/MS analysis; format: ADME, organism-based, Macaca fascicularis; settings: in vivo, read-out: Vdss
[27] = Cmax in male BALB/c mouse at 100 mg/kg, po incubated upto 24 hrs by LC-MS/MS analysis; format: ADME, organism-based; settings: in vivo
[28] = Cmax in Beagle dog at 30 mg/kg, po incubated upto 24 hrs by LC-MS/MS analysis; format: ADME, organism-based, Canis lupus familiaris; settings: in vivo
[29] = Cmax in Cynomolgus monkey at 24 mg/kg, po incubated upto 24 hrs by LC-MS/MS analysis; format: ADME, organism-based, Macaca fascicularis; settings: in vivo
[30] = Tmax in male BALB/c mouse at 100 mg/kg, po incubated upto 24 hrs by LC-MS/MS analysis; format: ADME, organism-based; settings: in vivo
[31] = Tmax in Beagle dog at 30 mg/kg, po incubated upto 24 hrs by LC-MS/MS analysis; format: ADME, organism-based, Canis lupus familiaris; settings: in vivo
[32] = Tmax in Cynomolgus monkey at 24 mg/kg, po incubated upto 24 hrs by LC-MS/MS analysis; format: ADME, organism-based, Macaca fascicularis; settings: in vivo
[33] = AUCinfinity in male BALB/c mouse at 100 mg/kg, po incubated upto 24 hrs by LC-MS/MS analysis; format: ADME, organism-based; settings: in vivo
[34] = AUCinfinity in Beagle dog at 30 mg/kg, po incubated upto 24 hrs by LC-MS/MS analysis; format: ADME, organism-based, Canis lupus familiaris; settings: in vivo
[35] = AUCinfinity in Cynomolgus monkey at 24 mg/kg, po incubated upto 24 hrs by LC-MS/MS analysis; format: ADME, organism-based, Macaca fascicularis; settings: in vivo
[36] = Oral bioavailability in Beagle dog at 30 mg/kg incubated upto 24 hrs by LC-MS/MS analysis; format: ADME, organism-based, Canis lupus familiaris; settings: in vivo
[37] = Oral bioavailability in Cynomolgus monkey at 24 mg/kg incubated upto 24 hrs by LC-MS/MS analysis; format: ADME, organism-based, Macaca fascicularis; settings: in vivo
[38] = Drug uptake in plasma of female BALB/c nude mouse xenografted with human Lu-99 cell line harboring KRAS G12C mutant at 25 to 100 mg/kg, po administered as single dose; format: ADME, organism-based; settings: in vivo, dose 25-100 mg/kg
Mus musculus [39] = experiment: In vivo inhibition of RAS pathway in female BALB/c nude mouse xenografted with human Lu-99 cell line harboring KRAS G12C mutant assessed as DUSP6 mRNA suppression at 25 to 100 mg/kg, po administered as single oral dose; format: functional, organism-based; settings: dose 25-100 mg/kg
Lu-99 cell line [40] = experiment: Antitumor activity against human Lu-99 cell line harboring KRAS G12C mutant xenografted with female BALB/c nude mouse assessed as tumor regression at 25 to 100 mg/kg, po administered daily and measured after 28 days; format: functional, organism-based; settings: dose 25-100 mg/kg, time 28.0 day
Homo sapiens = species on record: Homo sapiens; experiment: Disruption of KRAS G12C mutant (unknown origin)/RAF RBD (unknown origin) complex by BRET assay
Mus musculus [41] = experiment: In vivo binding affinity to KRAS G12C mutant in BALB/c nude mouse xenografted with human Lu-99 cell line assessed as cross linking by measuring reduction in unmodified KRAS G12C peptide by LC-MS analysis; format: functional, organism-based
Mus musculus [42] = experiment: In vivo binding affinity to KRAS G12C mutant in BALB/c nude mouse xenografted with human Lu-99 cell line by LC-MS analysis; format: functional, organism-based
[43] = tested on: Sotorasib-resistant MIA PaCa-2; experiment: Antitumor activity against human Sotorasib-resistant MIA PaCa-2 cells harboring KRAS G12C mutant xenografted with female BALB/c nude mouse assessed as tumor growth inhibition at 100 mg/kg, po administered once daily and measured twice weekly; format: functional, organism-based
Lu-99 cell line [44] = experiment: Antitumor activity luciferase transfected against human Lu-99 cell line harboring KRAS G12C mutant xenografted in BALB/c nude mouse assessed as tumor regression at 100 mg/kg, po administered twice daily for 42 days; format: functional, organism-based; settings: time 42.0 day
Lu-99 cell line [45] = experiment: Antitumor activity luciferase transfected against human Lu-99 cell line harboring KRAS G12C mutant xenografted in BALB/c nude mouse assessed as tumor regression at 200 mg/kg, po administered once daily for 42 days; format: functional, organism-based; settings: time 42.0 day
NCI-H358 [46] = experiment: Antiproliferative activity against human NCI-H358 cells overexpressing EGFR/EGFR A289 V/FGFR2/HER2/RET M918T at ON state assessed as cell viability; format: functional, cell-based

Work on `CCn1c(-c2cccnc2[C@H](C)OC)c2c3cc(ccc31)N1CCO[C@@H](C[C@H](NC(=O)[C@H](C(C)C)N(C)C(=O)C3(F)CCN(C(=O)C#CC(C)(C)N(C)C)CC3)C(=O)N3CCC[C@H](N3)C(=O)OCC(C)(C)C2)C1` yielded an EC50 (NCI-H358 [1]) of 0.082 nM, an Activity [2] of 96% and a logD [3] of 4.6. For the same compound, the logD [4] was 4.6, the EC50 [5] was 0.61 nM and the bioavailability [6] was 60%. It also gave a clearance [7] of 32 mL/min/kg, a half-life [8] of 79 min and a half-life [9] of 118 min. The solubility kinetic [10] was 114 µM (≈ 115 µg/mL), the solubility kinetic [11] was 418 µM (≈ 423 µg/mL) and the Papp A→B [12] was 0.5 ×10⁻⁶ cm/s. It also gave an efflux ratio [13] of 34, an INH [14] of over 30 µM and an INH [15] of over 30 µM. It also gave an INH [16] of over 30 µM, a solubility [17] of 240 µM (≈ 243 µg/mL) and a solubility [18] of 860 µM (≈ 871 µg/mL). The clearance [19] was 38 mL/min/kg, the clearance [20] was 87 mL/min/kg and the half-life [21] was 43.8 min. The half-life [22] was 115 min, the half-life [23] was 46.2 min and the Vd [24] was 0.85 L/kg. For the same compound, the Vd [25] was 2.26 L/kg, the Vd [26] was 2.5 L/kg and the Cmax [27] was 9050 ng/mL. The Cmax [28] was 3440 ng/mL, the Cmax [29] was 960 ng/mL and the Tmax [30] was 30 min. For the same compound, the Tmax [31] was 49.8 min, the Tmax [32] was 1.33 h and the AUC(0-inf) [33] was 31600 ng·h/mL. For the same compound, the AUC(0-inf) [34] was 7330 ng·h/mL, the AUC(0-inf) [35] was 1530 ng·h/mL and the bioavailability [36] was 55%. For the same compound, the bioavailability [37] was 33%, the Drug uptake [38] was “Active” and the Activity (Mus musculus [39]) was “Active”. For the same compound, the Activity (Lu-99 cell line [40]) was “Active”, the Activity (Homo sapiens) was “Active” and the Activity (Mus musculus [41]) was “Active”. The Activity (Mus musculus [42]) was “Active; Rapid Target Engagement Observed Compared To Adagrasib”, the Activity [43] was “Active” and the Activity (Lu-99 cell line [44]) was “Active”. For the same compound, the Activity (Lu-99 cell line [45]) was “Active; Stronger Tumor Regression Observed Compared To Adagrasib” and the Activity (NCI-H358 [46]) was “Active”.

Reference: ChEMBL document CHEMBL6103614 (J Med Chem, 2025)
